Results: ChEMBL document CHEMBL4229459, “An efficient synthetic route for preparation of antimycobacterial wollamides and evaluation of their in vitro and in vivo efficacy” (Bioorg Med Chem Lett, 2018)
Residues, ends and D or L forms follow the SMILES beside them.

Test system: Mycobacterium tuberculosis
Test: Antimycobacterial activity against Mycobacterium bovis BCG measured after 7 days
Type: functional, organism-based
Conditions: variant bovis BCG, 168 h

Row | SMILES | IC50 [nM]
1 | CC[C@@H](C)[C@@H]1NC(=O)[C@@H](CC(C)C)NC(=O)[C@H](CC(C)C)NC(=O)[C@H](Cc2c[nH]c3ccccc23)NC(=O)[C@@H](CCCN)NC(=O)[C@H](CC(N)=O)NC1=O | 2800
2 | CC(C)C[C@@H]1NC(=O)[C@H](Cc2c[nH]c3ccccc23)NC(=O)[C@@H](CCCN)NC(=O)[C@H](CC(N)=O)NC(=O)[C@H](C(C)C)NC(=O)[C@@H](CC(C)C)NC1=O (HELM PEPTIDE1{[NCCC[C@@H](N[*:1])C(=O)[*:2]].W.L.[dL].V.N}$PEPTIDE1,PEPTIDE1,1:R1-6:R2$$$V2.0) | 3100
